Patent US20090029970A1, “PAIN REMEDY CONTAINING ROCK INHIBITOR” (Astellas Pharma Inc., priority 2005, published 2009)

Tests used:
[1] = tested on: rat MIA-induced osteoarthritis model; assay: Analgesic test by assessment of hindlimb weight distribution in monoiodoacetate (MIA)-induced osteoarthritis model; format: in vivo; conditions: for ED50: Rattus norvegicus, read-out: Difference in weight between the right and left hindlimbs of rats: ED50
Procedure: This disease model was prepared according to the description in Toxicol Pathol 31(6), 619-624 (2003). Female SD rats (6-7 weeks old, Charles River Laboratories Japan, Inc.) were anesthetized with halothane (Takeda Pharmaceutical Company, Limited) and given a single intra-articular injection of 1 mg of monosodium iodoacetate (MIA; Sigma, St. Louis) through the infrapatellar ligament of the right knee. MIA was dissolved with physiological saline and administered in a volume of 50 μL using a 27-gauge, 0.5-inch needle. Three weeks after the injection of MIA (establishment of pathology of osteoarthritis), single oral administration of a ROCK inhibitor or diclofenac was given and the weights of both hindlimbs of the rats were determined using an incapacitance tester (Linton Instrumentation, Norfork, UK) 2 hours after administration of the compounds to obtain ED50 values (Table 1).

[2] = tested on: bradykinin-induced joint pain model; assay: Pain alleviation effect on bradykinin-induced joint pain model; format: in vivo, rat; conditions: for pain score (0-4): 30 min before bradykinin, decreased from 2.6
Procedure: Preparation of the Joint Pain Model and Evaluation of a Level of Pain were conducted based on the description in Folia pharmacol. japon. 92, 17-27 (1988). Female SD rats (6-7 weeks old, Charles River Laboratories Japan, Inc.) were anesthetized with halothane (Takeda Pharmaceutical Company, Limited) and given a single intra-articular injection of a saline solution of Wf536 or Compound 2 into the knee joint cavity of the hindlimb using a 27-gauge, 0.5-inch needle at a dose of 0.03 μg/site, 0.3 μg/site or 3 μg/site. Thirty minutes after administration of the drug, a physiological saline solution of bradykinin was injected into the knee joint cavity of the hindlimb (3 μM/site/50 μl), then the response to pain of the rat after administration of bradykinin was observed. The level of pain was scored as five grade point (0-4) as follows: 0: no lameness to lameness for 10 seconds; 1: lameness for 10 to 30 seconds; 2: lift of the limb within 10 seconds or lameness for 31 or more seconds; 3: three-legged gait within 10 seconds followed by lameness; and 4: three-legged gait for 10 or more seconds followed by lameness. About 10 rat models were used in each experimental group. It was confirmed that administration of bradykinin leads to response to pain scored as about 3.

[3] = tested on: MIA-induced osteoarthritis model; assay: Cartilage damage score of the distal end of the tibia in MIA-induced osteoarthritis model; format: in vivo, rat; conditions: for score of morphological change of the distal end of the tibia (0-4): three weeks after injection, decreased from 3
Procedure: This disease model was prepared according to the description in Toxicol Pathol 31 (6), 619-624 (2003). Female SD rats (6-7 weeks old, Charles River Laboratories Japan, Inc.) were anesthetized with halothane (Takeda Pharmaceutical Company, Limited) and given a single intra-articular injection of 1 mg of monosodium iodoacetate (MIA; Sigma, St. Louis) through the intrapatellar ligament of the right knee. MIA was dissolved with physiological saline and administered in a volume of 50 μL using a 27-gauge, 0.5-inch needle. Three weeks after the injection, a tibia was isolated and morphological change of the distal end of the tibia was scored (0-4; FIG. 1). About 8 rats were used for each group. Three weeks after the injection of MIA, cartilage damage of about score 3 was confirmed. Wf536 or Compound 2 was injected intra-articularly at a concentration of 0.03 μg/site, 0.3 μg/site or 3 μg/site 2 times a week (every 2 to 3 days) from the day of administration of MIA. […] 0: no damage; 1: damage on the surface of cartilage; 2: cartilage degradation; 3: cartilage degradation and subchondral bone damage; 4: cartilage degradation, subchondral bone damage and spur formation.

[4] = female SD rats, single oral administration three weeks after MIA injection, measured 2 hours after administration

NC(=O)c1cc(F)c(N[C@H]2CC[C@H](N)CC2)cc1F [Compound 1, 4-[(trans-4-aminocyclohexyl)amino]-2,5-difluorobenzamide]
ED50 [1, 4]: < 10 mg/kg

NC(=O)c1cc(Cl)c(N[C@H]2CC[C@H](N)CC2)cc1F [Compound 2, 4-[(trans-4-aminocyclohexyl)amino]-5-chloro-2-fluorobenzamide]
ED50 [1, 4]: < 10 mg/kg | pain score (0-4) ([2]; single intra-articular injection 0.3 μg/site): 1.1 | score of morphological change of the distal end of the tibia (0-4) ([3]; intra-articular 0.3 μg/site 2 times a week from the day of MIA): 2.3

CC(C)(N)c1ccc(-c2ccc3[nH]ncc3c2)cc1.Cl.Cl [Compound 3, 2-[4-(1H-indazol-5-yl)phenyl]-2-propanamine dihydrochloride]
ED50 [1, 4]: < 10 mg/kg

O=C(O)Cc1ccccc1Nc1c(Cl)cccc1Cl [Diclofenac]
ED50 [1, 4]: > 30 mg/kg | efficacy on pain (in words) ([1]; single dose given after establishment of the disease in the rat MIA-induced osteoarthritis model): ineffective

Cl.O=S(=O)(c1cccc2cnccc12)N1CCCNCC1 [Fasudil, 5-(hexahydro-1H-1,4-diazepin-1-ylsulfonyl)isoquinoline hydrochloride]
ED50 [1, 4]: < 10 mg/kg

C[C@@H](N)c1ccc(C(=O)Nc2ccncc2)cc1.Cl [Wf536, 4-[(1R)-1-aminoethyl]-N-(4-piridyl)benzamide monohydrochloride]
Difference in weight between the right and left hindlimbs of rats: ED50 [1, 4]: <30 mg/kg | response to pain (in words) ([2]; intra-articular 0.03, 0.3 or 3 μg/site): dose-dependently improved the response to pain | pain score (0-4) ([2]; single intra-articular injection 3 μg/site): 1.2 | score of morphological change of the distal end of the tibia (0-4) ([3]; intra-articular 3 μg/site 2 times a week from the day of MIA): 2.2 | MIA-induced cartilage damage (in words) ([3]; intra-articular 0.03, 0.3 or 3 μg/site 2 times a week, three weeks): dose-dependently improved the MIA-induced cartilage damage
